Test results reported in patent publication US20090029970A1, “PAIN REMEDY CONTAINING ROCK INHIBITOR” (Astellas Pharma Inc., priority 2005, published 2009).

Tests used:
[1] = tested on: rat MIA-induced osteoarthritis model; assay: Analgesic test by assessment of hindlimb weight distribution in monoiodoacetate (MIA)-induced osteoarthritis model; type: in vivo; details: for ED50: Rattus norvegicus, read-out: Difference in weight between the right and left hindlimbs of rats: ED50
Protocol: This disease model was prepared according to the description in Toxicol Pathol 31(6), 619-624 (2003). Female SD rats (6-7 weeks old, Charles River Laboratories Japan, Inc.) were anesthetized with halothane (Takeda Pharmaceutical Company, Limited) and given a single intra-articular injection of 1 mg of monosodium iodoacetate (MIA; Sigma, St. Louis) through the infrapatellar ligament of the right knee. MIA was dissolved with physiological saline and administered in a volume of 50 μL using a 27-gauge, 0.5-inch needle. Three weeks after the injection of MIA (establishment of pathology of osteoarthritis), single oral administration of a ROCK inhibitor or diclofenac was given and the weights of both hindlimbs of the rats were determined using an incapacitance tester (Linton Instrumentation, Norfork, UK) 2 hours after administration of the compounds to obtain ED50 values (Table 1).

[2] = tested on: MIA-induced osteoarthritis model; assay: Cartilage damage score of the distal end of the tibia in MIA-induced osteoarthritis model; type: in vivo, rat; details: for score of morphological change of the distal end of the tibia (0-4): three weeks after injection, decreased from 3
Protocol: This disease model was prepared according to the description in Toxicol Pathol 31 (6), 619-624 (2003). Female SD rats (6-7 weeks old, Charles River Laboratories Japan, Inc.) were anesthetized with halothane (Takeda Pharmaceutical Company, Limited) and given a single intra-articular injection of 1 mg of monosodium iodoacetate (MIA; Sigma, St. Louis) through the intrapatellar ligament of the right knee. MIA was dissolved with physiological saline and administered in a volume of 50 μL using a 27-gauge, 0.5-inch needle. Three weeks after the injection, a tibia was isolated and morphological change of the distal end of the tibia was scored (0-4; FIG. 1). About 8 rats were used for each group. Three weeks after the injection of MIA, cartilage damage of about score 3 was confirmed. Wf536 or Compound 2 was injected intra-articularly at a concentration of 0.03 μg/site, 0.3 μg/site or 3 μg/site 2 times a week (every 2 to 3 days) from the day of administration of MIA. […] 0: no damage; 1: damage on the surface of cartilage; 2: cartilage degradation; 3: cartilage degradation and subchondral bone damage; 4: cartilage degradation, subchondral bone damage and spur formation.

[3] = tested on: bradykinin-induced joint pain model; assay: Pain alleviation effect on bradykinin-induced joint pain model; type: in vivo, rat; details: for pain score (0-4): 30 min before bradykinin, decreased from 2.6
Protocol: Preparation of the Joint Pain Model and Evaluation of a Level of Pain were conducted based on the description in Folia pharmacol. japon. 92, 17-27 (1988). Female SD rats (6-7 weeks old, Charles River Laboratories Japan, Inc.) were anesthetized with halothane (Takeda Pharmaceutical Company, Limited) and given a single intra-articular injection of a saline solution of Wf536 or Compound 2 into the knee joint cavity of the hindlimb using a 27-gauge, 0.5-inch needle at a dose of 0.03 μg/site, 0.3 μg/site or 3 μg/site. Thirty minutes after administration of the drug, a physiological saline solution of bradykinin was injected into the knee joint cavity of the hindlimb (3 μM/site/50 μl), then the response to pain of the rat after administration of bradykinin was observed. The level of pain was scored as five grade point (0-4) as follows: 0: no lameness to lameness for 10 seconds; 1: lameness for 10 to 30 seconds; 2: lift of the limb within 10 seconds or lameness for 31 or more seconds; 3: three-legged gait within 10 seconds followed by lameness; and 4: three-legged gait for 10 or more seconds followed by lameness. About 10 rat models were used in each experimental group. It was confirmed that administration of bradykinin leads to response to pain scored as about 3.

[4] = female SD rats, single oral administration three weeks after MIA injection, measured 2 hours after administration

NC(=O)c1cc(F)c(N[C@H]2CC[C@H](N)CC2)cc1F [Compound 1, 4-[(trans-4-aminocyclohexyl)amino]-2,5-difluorobenzamide]
ED50 [1, 4]: < 10 mg/kg

NC(=O)c1cc(Cl)c(N[C@H]2CC[C@H](N)CC2)cc1F [Compound 2, 4-[(trans-4-aminocyclohexyl)amino]-5-chloro-2-fluorobenzamide]
ED50 [1, 4]: < 10 mg/kg
score of morphological change of the distal end of the tibia (0-4) ([2]; intra-articular 0.3 μg/site 2 times a week from the day of MIA): 2.3
pain score (0-4) ([3]; single intra-articular injection 0.3 μg/site): 1.1

CC(C)(N)c1ccc(-c2ccc3[nH]ncc3c2)cc1.Cl.Cl [Compound 3, 2-[4-(1H-indazol-5-yl)phenyl]-2-propanamine dihydrochloride]
ED50 [1, 4]: < 10 mg/kg

O=C(O)Cc1ccccc1Nc1c(Cl)cccc1Cl [Diclofenac]
ED50 [1, 4]: > 30 mg/kg
efficacy on pain (in words) ([1]; single dose given after establishment of the disease in the rat MIA-induced osteoarthritis model): ineffective

Cl.O=S(=O)(c1cccc2cnccc12)N1CCCNCC1 [Fasudil, 5-(hexahydro-1H-1,4-diazepin-1-ylsulfonyl)isoquinoline hydrochloride]
ED50 [1, 4]: < 10 mg/kg

C[C@@H](N)c1ccc(C(=O)Nc2ccncc2)cc1.Cl [Wf536, 4-[(1R)-1-aminoethyl]-N-(4-piridyl)benzamide monohydrochloride]
Difference in weight between the right and left hindlimbs of rats: ED50 [1, 4]: <30 mg/kg
score of morphological change of the distal end of the tibia (0-4) ([2]; intra-articular 3 μg/site 2 times a week from the day of MIA): 2.2
MIA-induced cartilage damage (in words) ([2]; intra-articular 0.03, 0.3 or 3 μg/site 2 times a week, three weeks): dose-dependently improved the MIA-induced cartilage damage
response to pain (in words) ([3]; intra-articular 0.03, 0.3 or 3 μg/site): dose-dependently improved the response to pain
pain score (0-4) ([3]; single intra-articular injection 3 μg/site): 1.2
